Experimental findings from US12465618B2, “Compositions and methods for degenerative disc regeneration” (University Health Network, priority 2015, dated 2025) are described below.

What all share (type): cell-based
In one experiment the test system is rat NP cells. The experiment is described as follows: Western blotting of rat NP cells treated with IL-1β/TNFα with or without inhibitors or growth factors. Particulars: rat-tail NP cells treated with IL-1β and TNFα, Western blot, FIG. 5g-5h. The procedure:
(§1) After euthanasia, healthy rat lumbar/caudal spine IVDs, injured tail discs and bovine caudal IVD NPs were removed aseptically and the nucleus pulposus (NP) was removed separately and enzymatically digested according to methods established by the present inventors^16. Similarly, human degenerative disc NPs were enzymatically digested using Pronase (0.4%, 1 hr at 37° C.) followed by Collagenase II treatment (0.015%, O/N, 37° C.). The following day, the cells were filtered with a 70p cell strainer and cultured within a hypoxic incubator (NuAire, MN, USA) in 3.5% O2, 5% CO2, in Advanced Dulbecco's modified Eagle's medium (ADMEM) supplemented with 8% fetal bovine serum (FBS) and penicillin and streptomycin (100 U/mL). For treatments, the cells were either cultured in serum free ADMEM (no treatment controls) or treated with interleukin-1β (IL-1β, 10 ng/mL), tumor necrosis factor-alpha (TNFα, 50 ng/mL), connective tissue growth factor (CTGF, 10-100 ng/mL), Wnt-inducible soluble protein 2 (WISP2, 10-100 ng/mL) or transforming growth factor beta 1 (TGFβ1, 5-20 ng/mL) for various time points under hypoxic conditions.
(§2) Equal amounts of whole cell or tissue lysates prepared using RIPA lysis buffer were subjected to Western blotting as described earlier^18,19. Total lysates (30 μg) were resolved on 10% sodium dodecyl sulphate-polyacrylamide gels (SDS-PAGE) under reducing conditions and then proteins were electro-transferred onto polyvinyledendifluoride (PVDF) membranes (BioRad, CA). After blocking with 5% non-fat powdered milk in Tris-buffered saline (TBS, 0.1 M, pH=7.4), blots were incubated with rabbit or goat polyclonal/mouse monoclonal primary antibodies at 4° C. overnight. […] Blots were washed three times with TTBS for 15 minutes and protein bands were detected by the enhanced chemiluminescence method (BioRad, CA) on Kodak Hyperfilm.

Experiment [1] deals with human degenerative disc NP cells. The experiment is described as follows: Western blotting of human degenerative disc NP cells. Particulars: within 24 hrs. How it is done:
as §1, §2

Experiment [2] concerns bovine degenerative disc NP cells. Briefly: MTT cell viability assay. Particulars: CTGF 100 ng/ml, TGFβ1 10 ng/ml, 48 hrs-72 hrs. The procedure:
(§3) Nucleus pulposus cells (rat, bovine and human) were plated in 96-well flat bottom plates in order to evaluate the effect of treatment with growth factors in cell viability and proliferation assays. Rat NP cells were treated with CTGF, WISP-2 and TGFβ1 in a dose (1 ng/mL-100 ng/mL) and time dependent manner (24 hrs-96 hrs) to determine the optimum dose and time for the assessment of these growth factors on viability. Cell viability was determined using 3-(4,5-dimethylthiazol-2-yl)-2,5-diphenyltetrazolium bromide (MTT, Sigma-Aldrich, USA) as previously described^44. A BrdU-ELISA (colorimetric) assay (Cat #ab126556, Abcam) was used for determining the effect of treatment with CTGF or TGFβ1 on human and rat NP cells (healthy/injured) following the manufacturer's instructions. Briefly, NP cells were treated with CTGF or TGFβ1 alone or in combination for 48 hrs following addition of BrdU reagent O/N in each well. Incorporated BrdU in DNA of proliferating cells was determined using anti-BrdU antibody and quantified by ELISA as per the manufacturer's instructions.

The subject of experiment [3] is rat-tail disc NP cells (healthy/injured). Briefly: MTT cell viability assay. The note with it: CTGF 100 ng/ml, TGFβ1 10 ng/ml, 48 hrs-72 hrs. How it is done:
as §3

In experiment [4] the test system is human degenerative disc NP cells. Briefly: Caspase 3/7 Lumi-Glo assay, cytokine induced. The note with it: 48 hrs. How it is done:
(§4) Apoptosis induced in NP cells (rat and human) as result of treatment with pro-inflammatory cytokines (IL-1β and TNFα) was determined using Caspase 3/7 and Caspase 9 specific Lumi-Glo assays (Promega, Madison). Briefly, NP cells were plated and treated with either IL-1β alone or in combination with TNFα only or in presence of CTGF and TGFβ1 for 48 hrs, followed by addition of specific reagents for Caspase 3/7 and Caspase 9 as per the manufacturer's instructions. Cells were incubated for another 4 hrs at 37° C., and plates were read in a multi-well luminescence plate reader.

The subject of experiment [5] is rat degenerative disc NP cells. Briefly: Caspase 3/7 Lumi-Glo assay, cytokine induced. The note with it: 48 hrs. How it is done:
as §4

With “TGFβ1: Human recombinant transforming growth factor beta 1, Peprotech cat #100-21, identified in NCCM”, in the experiment with rat NP cells, the “expression of MMP-3, MMP-13 and Cox2 proteins in presence of growth factor” value is listed as “reduced expression”. In experiment [1], the “collagen 2 expression (Western blotting)” value is recorded as “increase”. Besides, the “cell viability (MTT)” value in experiment [2] and in experiment [3] was “increased the viability” each time. For the same substance, the “cytokine (IL-1β and TNFα)-induced caspase 3/7 activity” value in experiment [4] and in experiment [5] was “significant decrease” throughout.
